The values that follow come from PMC5390772 (Neuropharmacology, 2017).

The target of one experiment is α7 nACh receptor Y91C. Also on record: species or system chick. Conditions: no saturable binding. On the procedure: (§1) Mutagenesis was performed using the QuikChange method (Agilent Technologies Inc., CA, USA) to substitute amino acids throughout each of the binding loops A – F (Fig. 1). The α7 nACh-5-HT3 subunit cDNA was as described by Bertrand ([Eiselé et al., 1993]) and was cloned into pcDNA3.1 for expression in HEK293 cells. Human 5-HT3A cDNA (accession number: P46098) and mouse 5-HT3A cDNA (Q6J1J7) were cloned into the same vector. Cells were transiently transfected with this cDNA using either polyethyleneimine (PEI: 25 kDa, linear, powder, Polysciences Inc., Eppelheim, Germany) or Lipofectamine 2000 (Life Technologies, CA, USA) according to the manufacturer's instructions. 30 μl of PEI (1 mg ml^−1), 5 μg cDNA and 1 ml DMEM/F12 were incubated for 10 min at room temperature, added drop wise to a 90 mm plate of 70–80% confluent HEK293 cells, and incubated for 2–3 days before use.
(§2) Human embryonic kidney (HEK) 293 cells were grown on 90 mm round tissue culture plates as monolayers in DMEM/F12 (Life Technologies) supplemented with 10% fetal bovine serum (FBS; Sigma Aldrich) at 37 °C in a moist atmosphere containing 5% CO2.
(§3) Transfected HEK 293 cells were scraped into 0.6 ml of ice-cold 10 mM HEPES buffer (pH 7.4) and stored frozen. After thawing, they were washed with HEPES buffer, homogenised by passage through a 21 G needle, and 50 μg of cell suspension incubated in 0.5 ml HEPES buffer containing [^3H]epibatidine (55.8 Ci/mmol, Waltham, MA). Non-specific binding was determined using 300 μM (−)-nicotine. Equilibrium reactions were incubated on ice for at least 1 h. Incubations were terminated by vacuum filtration onto Whatman GF/B filters wetted with 0.3% polyethyleneimine, followed by two rapid washes with 2.5 ml ice cold buffer. Radioactivity was determined by scintillation in Ultima Gold XR (Perkin Elmer) using a Tri-Carb 2100 TR (PerkinElmer) scintillation counter. Final counts were monitored to ensure that binding never exceeded 10% of the added concentrations of radioligands.
(§4) All data were analysed using GraphPad Prism v5. Individual saturation binding experiments were fitted to Eq. (1):(1) […] where Bmax is maximum binding at equilibrium, Kd is the equilibrium dissociation constant and [L] is the free concentration of radioligand. Values from individual experiments were averaged to yield the mean ± sem. Affinities were compared using 1-way ANOVA and a Dunnett's Post-Test.

Another experiment deals with α7 nACh receptor W145C. Also on record: species or system chick. The note with it: no saturable binding. On the procedure:
as §1, §2, §3, §4

A further experiment addresses α7 nACh receptor W53C. On the set-up: species or system chick. The note with it: no saturable binding. The protocol: as §1, §2, §3, §4
The target in another experiment is α7 nACh receptor Y191C. Also on record: species or system chick. Conditions: no saturable binding. The protocol:
as §1, §2, §3, §4

Another experiment addresses α7 nACh receptor N104C. Also on record: species or system chick. The note with it: no saturable binding. The protocol: as §1, §2, §3, §4
A further experiment concerns the target α7 nACh receptor Y184C. Also on record: species or system chick. The note with it: no saturable binding. On the procedure: as §1, §2, §3, §4
In experiment [1] the target is mouse 5-HT3 receptors (Mus musculus, UniProt P23979). Type of experiment: binding. Conditions: concentration of up to 25 nM. On the procedure: as §1
(§5) Transfected HEK 293 cells were scraped into 0.6 ml of ice-cold 10 mM HEPES buffer (pH 7.4) and stored frozen. […] Non-specific binding was determined using 300 μM (−)-nicotine. […] Radioactivity was determined by scintillation in Ultima Gold XR (Perkin Elmer) using a Tri-Carb 2100 TR (PerkinElmer) scintillation counter. Final counts were monitored to ensure that binding never exceeded 10% of the added concentrations of radioligands. […]
Target sequence in this assay (P23979 24-246 limits assumed): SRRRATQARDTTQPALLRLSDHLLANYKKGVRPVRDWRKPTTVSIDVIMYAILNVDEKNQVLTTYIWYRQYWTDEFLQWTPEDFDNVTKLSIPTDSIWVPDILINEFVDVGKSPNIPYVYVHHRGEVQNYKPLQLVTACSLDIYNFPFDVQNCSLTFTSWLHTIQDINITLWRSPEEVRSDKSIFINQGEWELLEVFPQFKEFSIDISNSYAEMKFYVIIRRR

Experiment [2] deals with T1, human 5-HT3 receptors (Homo sapiens, UniProt P46098).
T1 construct: expressed in transfected cells; host or cells: HEK293
T1 sequence (P46098 24-478): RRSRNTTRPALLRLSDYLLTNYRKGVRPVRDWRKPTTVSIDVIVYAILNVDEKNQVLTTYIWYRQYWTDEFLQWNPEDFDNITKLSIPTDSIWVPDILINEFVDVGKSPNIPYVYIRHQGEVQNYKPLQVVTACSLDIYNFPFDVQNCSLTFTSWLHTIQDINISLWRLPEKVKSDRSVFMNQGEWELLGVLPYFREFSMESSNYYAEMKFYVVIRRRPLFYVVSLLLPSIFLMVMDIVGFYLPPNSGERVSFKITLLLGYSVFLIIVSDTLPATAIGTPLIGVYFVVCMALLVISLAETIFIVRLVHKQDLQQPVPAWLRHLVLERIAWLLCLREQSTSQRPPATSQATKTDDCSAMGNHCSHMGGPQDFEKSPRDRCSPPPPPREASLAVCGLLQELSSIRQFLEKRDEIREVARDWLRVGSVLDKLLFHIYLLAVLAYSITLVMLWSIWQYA
Format: binding. The note with it: concentration of up to 25 nM. On the procedure:
as §1, §5

In experiment [3] the target is T2, wild type α7 nACh receptors (UniProt P22770+P23979, M226I/T225I).
T2 construct: directed against the 5-HT3 region of the chimaeric receptor; expressed in transfected cells; host or cells: HEK293
T2 sequence (P22770+P23979 fused P22770:T225I/P22770:M226I): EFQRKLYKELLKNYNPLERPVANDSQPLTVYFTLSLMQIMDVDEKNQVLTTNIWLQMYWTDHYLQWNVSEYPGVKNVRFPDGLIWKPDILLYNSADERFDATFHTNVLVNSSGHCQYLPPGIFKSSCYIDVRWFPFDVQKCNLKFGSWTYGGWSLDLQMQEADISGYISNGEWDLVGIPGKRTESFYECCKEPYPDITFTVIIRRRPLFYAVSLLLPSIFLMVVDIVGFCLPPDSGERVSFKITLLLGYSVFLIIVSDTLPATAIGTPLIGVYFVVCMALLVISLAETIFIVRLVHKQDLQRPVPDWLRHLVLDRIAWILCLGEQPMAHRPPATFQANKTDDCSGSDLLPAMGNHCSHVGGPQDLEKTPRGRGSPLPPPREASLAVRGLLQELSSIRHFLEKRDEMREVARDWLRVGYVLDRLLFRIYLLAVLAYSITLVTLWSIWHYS
Type of experiment: binding, chick. The note with it: α7 nACh-5-HT3 chimaera in HEK 293 cells. The protocol: as §1, §2, §3, §4

The next experiment deals with α7 nACh receptor S144C. Format: binding, chick. On the procedure: as §1, §2, §3, §4
In another experiment the target is α7 nACh receptor S162C. Format: binding, chick. The protocol:
as §1, §2, §3, §4

Another experiment has as its target α7 nACh receptor C187A. Format: binding, chick. The protocol:
as §1, §2, §3, §4

The target of the next experiment is α7 nACh receptor T146C. Format: binding, chick. The protocol: as §1, §2, §3, §4
Another experiment has as its target α7 nACh receptor C186A. Format: binding, chick. The protocol:
as §1, §2, §3, §4

Another experiment has as its target α7 nACh receptor Q55C. Type of experiment: binding, chick. On the procedure: as §1, §2, §3, §4
The target in another experiment is α7 nACh receptor D160C. Format: binding, chick. On the procedure:
as §1, §2, §3, §4

The target of experiment [4] is T3, wild type α7 nACh receptors (UniProt P22770+P23979).
T3 construct: directed against the 5-HT3 region of the chimaeric receptor; expressed in transfected cells; host or cells: HEK293
T3 sequence (P22770+P23979 fused P22770:T225I/P22770:M226I): as above
Type of experiment: binding, chick. On the procedure: as §1, §2, §3, §4

For another experiment, the target named is α7 nACh receptor Q114C. Format: binding, chick. On the procedure: as §1, §2, §3, §4
A further experiment addresses α7 nACh receptor L116C. Type of experiment: binding, chick. On the procedure:
as §1, §2, §3, §4

In a further experiment the target is α7 nACh receptor L106C. Type of experiment: binding, chick. On the procedure: as §1, §2, §3, §4
Experiment [5] addresses T1, human 5-HT3 receptors. The experiment can be described thus: biochemical. Type of experiment: binding. On the procedure:
as §1, §5

Experiment [6] addresses T4, mouse 5-HT3 receptors (Mus musculus, UniProt P23979).
T4 construct: expressed in transfected cells; host or cells: HEK293
Nature of the experiment: biochemical. Type of experiment: binding. On the procedure: as §1, §5
T4 sequence (P23979 24-483 isoform P23979-2 limits assumed): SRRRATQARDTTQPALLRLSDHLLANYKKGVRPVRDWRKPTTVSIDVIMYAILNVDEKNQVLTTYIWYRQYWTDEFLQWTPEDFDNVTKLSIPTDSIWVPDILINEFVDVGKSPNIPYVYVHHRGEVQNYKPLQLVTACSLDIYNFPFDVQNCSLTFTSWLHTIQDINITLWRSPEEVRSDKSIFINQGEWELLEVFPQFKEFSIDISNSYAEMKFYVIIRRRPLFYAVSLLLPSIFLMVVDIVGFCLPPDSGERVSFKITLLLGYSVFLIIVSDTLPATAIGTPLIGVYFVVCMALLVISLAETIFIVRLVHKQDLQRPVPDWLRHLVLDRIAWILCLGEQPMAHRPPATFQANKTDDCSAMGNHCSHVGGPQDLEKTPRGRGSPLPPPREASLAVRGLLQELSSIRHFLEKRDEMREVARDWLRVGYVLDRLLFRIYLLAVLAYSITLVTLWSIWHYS

The next experiment deals with α7 nACh receptors Y184F. Also on record: method as in Li et al., 2011. The note with it: Y184F ref Li et al., 2011; cited from earlier work.
Another experiment concerns the target α7 nACh receptors. On the set-up: method as in Li et al., 2011; Van Arnam et al., 2013. Conditions: before W53 substitution ref Li et al., 2011; Van Arnam et al., 2013; cited from earlier work.
The target of the next experiment is α7 nACh receptors W53A. On the set-up: method as in Li et al., 2011; Van Arnam et al., 2013. Conditions: W53 substituted by Ala ref Li et al., 2011; Van Arnam et al., 2013; cited from earlier work.
Another experiment deals with α7 nACh receptors W53F. On the set-up: method as in Li et al., 2011; Van Arnam et al., 2013. The note with it: W53F ref Li et al., 2011; Van Arnam et al., 2013; cited from earlier work.
A further experiment deals with α7 nACh receptors L116A. On the set-up: method as in Blum et al., 2013; Van Arnam et al., 2013. Conditions: L116 Ala mutation ref Blum et al., 2013, Van Arnam et al.; cited from earlier work.
Another experiment concerns α7 nACh receptors W145F. Also on record: method as in Li et al., 2011. The note with it: W145F ref Li et al., 2011; cited from earlier work.

A word on the Kd: it is the free concentration of one partner at which half of the binding sites on the other are occupied at equilibrium, for simple one-to-one binding. A lower Kd goes with a tighter complex. For the compound `Clc1ccc(C2CC3CCC2N3)cn1` (stereo not drawn) [[^3H]epibatidine], the Kd on α7 nACh receptor Y91C, at α7 nACh receptor W145C, on α7 nACh receptor W53C, on α7 nACh receptor Y191C, on α7 nACh receptor N104C and on α7 nACh receptor Y184C was greater than 0.02 µM in each case. The dissociation constant Kd on α7 nACh receptor S144C is 0.0023 µM; at α7 nACh receptor S162C, 0.0072 µM; on α7 nACh receptor C187A it was 0.06 µM; at α7 nACh receptor T146C, 0.0098 µM; at α7 nACh receptor C186A, 0.033 µM; on α7 nACh receptor Q55C, 0.0069 µM. Moreover, the dissociation constant (Kd) on α7 nACh receptor D160C stood at 0.0087 µM; in experiment [4] it was 0.008 µM; on α7 nACh receptor Q114C, 0.0015 µM; at α7 nACh receptor L116C it was 0.0051 µM; at α7 nACh receptor L106C, 0.0083 µM. For the same compound, the saturable binding result at mouse 5-HT3 receptors [1] and at human 5-HT3 receptors [2] was “not detected” throughout. In addition, the “pKd Mean ± SEM” value turned out to be 8.09 ± 0.06 in [3]; 8.64 ± 0.12 at α7 nACh receptor S144C (loop B, HEK 293 cells); 8.14 ± 0.09 on α7 nACh receptor S162C (loop F, HEK 293 cells); 7.22 ± 0.07 at α7 nACh receptor C187A (loop C, HEK 293 cells); 8.01 ± 0.07 on α7 nACh receptor T146C (loop B, HEK 293 cells); 7.48 ± 0.10 on α7 nACh receptor C186A (loop C, HEK 293 cells). Also, the “pKd Mean ± SEM” value was found to be 8.16 ± 0.09 at α7 nACh receptor Q55C (loop D, HEK 293 cells); 8.06 ± 0.10 on α7 nACh receptor D160C (loop F, HEK 293 cells); 8.82 ± 0.09 at α7 nACh receptor Q114C (loop E, HEK 293 cells); 8.29 ± 0.05 on α7 nACh receptor L116C (loop E, HEK 293 cells); 8.08 ± 0.12 on α7 nACh receptor L106C (loop E, HEK 293 cells).

In general, Ki refers to the equilibrium dissociation constant of an inhibitor or competing ligand from its target. In general, EC50 refers to the concentration giving half of the maximal effect. With `Clc1ccc(C2CC3CCC2N3)cn1` (stereo not drawn) [epibatidine], the Ki amounted to 2.51 µM on human 5-HT3 receptors [5] and 12.3 µM on mouse 5-HT3 receptors [6]. The “change of affinity by mutation” value in the experiment with α7 nACh receptors Y184F is greater than 250 fold. Besides, the values for the EC50 on α7 nACh receptors and at α7 nACh receptors W53A were 0.34 µM and 5.8 µM, respectively. Also, the “affinity change by mutation” value in the experiment with α7 nACh receptors W53F was 4 fold. In addition, in the experiment on α7 nACh receptor Q114C, the “increase in affinity relative to wild type” value is on record as 5 fold. In addition, the “change in the EC50 by mutation” value in the experiment on α7 nACh receptors L116A is listed as 9 fold. The “reduction of affinity by mutation” value in the experiment on α7 nACh receptors W145F is reported as greater than 2200 fold.
